Measured values: patent US5045566A, “Novel imidate insecticides” (ICI Americas Inc., priority 1989, dated 1991)

Legend:
Format in all cases: in vivo
[1] = system: Black Bean Aphid [Aphis fabae (Scop.)]; test: Black bean aphid spray test on nasturtium (BBA), 48 hours; settings: percent of test compound in sprayed solution
Procedure: The compounds in Tables 1 and 2 above were tested for insecticidal activity using the following testing procedures. LC50 values, based on the results of these tests and calculated according to dosage-mortality curves, are expressed in Table 3.
Black Bean Aphid [Aphis fabae (Scop.)]:
Nasturtium plants (Tropaeolum sp.) approximately 5 cm tall, were transplanted into sandy loam soil in small cups and infested with 25-50 black bean aphids of mixed ages. Twenty-four hours later they were sprayed to the point of runoff with 50-50 acetone-water solutions of the test compounds. Treated plants were held in the greenhouse and mortality was recorded after 48 hours. Test concentrations ranged from 0.05% downward. The LC-50 value is expressed below in Table 3 under the heading "BBA" in terms of percent of the test compound in the sprayed solution.

[2] = system: Housefly [Musca domestica]; test: Housefly contact mortality in dishes (HF), 48 hours; settings: μg of test compound per 25 female flies
Outline: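 Residual contact test: acetone dilution, 0.01% peanut oil spreader, solvent evaporated; 25 ♀ flies (1-2 d old) per cage; sugar-water plug; 48 h mortality read. LC50 in μg/25 female flies, from dose-mortality curves; top dose 100 μg/25 flies.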

[3] = system: Cabbage Looper [Trichoplusia ni (Hubner)]; test: Cabbage looper leaf dip (CL), 3-5 days; settings: percent in solution, second-instar larvae
Outline: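 Steps: dilute compound in 50-50 acetone-water from 0.1% downward; immerse cotyledon pieces 2-3 s and dry; place in humid petri dishes with five second-instar larvae; record mortality at 3-5 days. Dosage-mortality curves yield LC50 as percent in solution.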

[4] = system: Tobacco Budworm [Heliothis virescens (Fabricius)] eggs; test: Tobacco budworm eggs (TBW-E); settings: percent in solution; 2-day old eggs
Outline: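 Mortality of dipped eggs served as read-out, recorded after untreated controls hatched and began feeding. Treatments used acetone solutions from 0.1% downward, with eggs incubated at 78° F; LC50 is expressed as percent of compound in the solution.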

SMILES	LC50 BBA [1] [%]	LC50 HF [2] [µg]	LC50 CL [3] [%]	LC50 TBW E (eggs) [4] [%]
COC(C)C(=Nc1ccc(Cl)cc1)OCc1cccc(Oc2ccccc2)c1 (stereo not drawn) [Compound 22]	0.01	15	0.004	0.08
Clc1cccc(N=C(OCc2cccc(Oc3ccccc3)c2)C2CC2)c1 [Compound 24]	0.01	25	0.005	0.1
CC(C)(C)C(=Nc1ccc(F)cc1)OCc1cccc(Oc2ccccc2)c1 [Compound 48]	> 0.05	> 100	0.03	> 0.05
CC(C)C(=Nc1cc(F)ccc1F)OCc1cccc(Oc2ccccc2)c1 [Compound 56]	0.03	91	0.01	> 0.05
CC(C)C(=Nc1cc(F)c(F)cc1F)OCc1cccc(Oc2ccccc2)c1 [Compound 58]	0.003	16	0.002	0.06
COc1cc(N=C(OCc2cccc(Oc3ccccc3)c2)C(C)C)cc(C(F)(F)F)c1 [Compound 76]	0.003	20	0.002	0.05
CC(C)C(=Nc1cc(C(F)(F)F)cc(C(F)(F)F)c1)OCc1cccc(Oc2ccccc2)c1 [Compound 78]	0.03	> 100	0.0025	> 0.1
CC(C)C(=Nc1ccc(Br)cc1F)OCc1cccc(Oc2ccccc2)c1 [Compound 79]	0.03	6	0.003	0.05
CC(C)C(=Nc1cc(C(F)(F)F)ccc1F)OCc1cccc(Oc2ccccc2)c1 [Compound 84]	0.03	93	0.006	0.1
Cc1cc(N=C(OCc2cccc(Oc3ccccc3)c2)C(C)C)ccc1F [Compound 87]	0.001	5	0.004	0.03
Cc1ccc(Cl)c(N=C(OCc2cccc(Oc3ccccc3)c2)C(C)C)c1 [Compound 93]	0.003	64	0.005	> 0.1
Cc1ccc(N=C(OCc2cccc(Oc3ccccc3)c2)C(C)C)c(Cl)c1 [Compound 94]	0.001	44	0.0045	0.075
COc1cc(N=C(OCc2cccc(Oc3ccccc3)c2)C(C)C)c(OC)cc1Cl [Compound 99]	> 0.05	> 100	0.016	> 0.1
COc1ccc(OC)c(N=C(OCc2cccc(Oc3ccccc3)c2)C(C)C)c1Cl [Compound 100]	> 0.05	100	0.05	> 0.1
CCSc1ccc(N=C(OCc2cccc(Oc3ccccc3)c2)C(C)C)cc1Cl [Compound 103]	0.001	> 100	0.015	> 0.1
CCOC(=O)c1ccc(N=C(OCc2cccc(Oc3ccccc3)c2)C(C)C)cc1Cl [Compound 104]	0.003	> 100	0.004	> 0.1
CC(C)(C)C(=Nc1ccc(Cl)c([N+](=O)[O-])c1)OCc1cccc(Oc2ccccc2)c1 [Compound 105]	0.05	> 100	0.018	> 0.1

SMILES	LC50 BBA [1] [%]	LC50 HF [2] [µg]	LC50 CL [3] [%]	LC50 TBW E (eggs) [4] [%]
CC(C)(C)C(=Nc1ccc(Br)c(Cl)c1)OCc1cccc(Oc2ccccc2)c1 [Compound 106]	0.01	> 100	0.014	> 0.1
Cc1ccc(N=C(OCc2cccc(Oc3ccccc3)c2)C(C)(C)C)cc1Cl [Compound 107]	0.01	> 100	0.007	> 0.1
Cc1cc(Cl)ccc1N=C(OCc1cccc(Oc2ccccc2)c1)C(C)(C)C [Compound 109]	> 0.05	> 100	0.002	> 0.1
CC(C)(Cl)C(=Nc1ccc(Cl)c2ccccc12)OCc1cccc(Oc2ccccc2)c1 [Compound 111]	0.003	> 100	0.1	> 0.1
Cc1cc(N=C(OCc2cccc(Oc3ccccc3)c2)C(C)C)ccc1Br [Compound 127]	0.001	58	0.01	0.04
CC(C)C(=Nc1c(Br)cc(F)cc1Br)OCc1cccc(Oc2ccccc2)c1 [Compound 130]	0.05	> 100	0.005	> 0.1
Cc1cc(Br)ccc1N=C(OCc1cccc(Oc2ccccc2)c1)C(C)C [Compound 133]	0.003	66	0.005	0.1
CC(C)(C)C(=Nc1cccc(Br)c1)OCc1cccc(Oc2ccccc2)c1 [Compound 134]	> 0.05	> 100	0.015	> 0.1
CC(C)C(=Nc1cccc(I)c1)OCc1cccc(Oc2ccccc2)c1 [Compound 136]	0.002	9	0.004	0.08
CSc1ccc(N=C(OCc2cccc(Oc3ccccc3)c2)C(Cl)Cl)cc1 [Compound 141]	0.006	35	< 0.1	> 0.1
Cc1cccc(N=C(OCc2cccc(Oc3ccccc3)c2)C(C)C)c1C [Compound 148]	0.0003	18	0.0025	0.025
COc1ccc(N=C(OCc2cccc(Oc3ccccc3)c2)C(C)C)c(C)c1 [Compound 149]	0.001	17	0.007	0.05
COc1ccc(C)cc1N=C(OCc1cccc(Oc2ccccc2)c1)C(C)C [Compound 150]	0.03	89	0.01	> 0.1
CCCCc1ccc(N=C(OCc2cccc(Oc3ccccc3)c2)C(C)C)cc1 [Compound 152]	0.01	> 100	0.009	> 0.1
CCC(=Nc1ccc(CC)cc1)OCc1cccc(Oc2ccccc2)c1 [Compound 157]	0.002	25	0.009	> 0.1
Cc1ccc(N=C(OCc2cccc(Oc3ccccc3)c2)C(C)C)cc1C [Compound 158]	0.0015	9	0.003	0.1
